Consider 17 molecules from paper PMC8468421, “Synthesis and Biological Evaluation of 1,2,3-Triazole Tethered Thymol-1,3,4-Oxadiazole Derivatives as Anticancer and Antimicrobial Agents” (Pharmaceuticals, 2021).

The test system of one data set is E. coli (ATCC 31218). Kind of data set: Antimicrobial activity, agar well zone of inhibition, E. coli. The data set is classed as cell-based, Escherichia coli. Conditions: 10 μL of 10 mg/mL in 50% DMSO per well, overnight 37 °C, --- = no zone of inhibition; for zone of inhibition at 10000 µg/mL: Escherichia coli, ATCC31218. The method, then: (§1) The antimicrobial activity of the final compounds was performed by reported methods.The bacterial strains, E. coli (Gram negative), S. aureus (Gram positive), and fungi, Candida albicans, were used for the study. Luria broth Agar and Sabouraud Dextrose Agar were prepared into a petri dish using 25 mL of autoclaved media; 100 μL of diluted broth of freshly prepared E. coli, S. aureus, and C. albicans were spread on Luria Broth Agar and Sabouraud Agar plates, respectively. Then, 7 wells of 50 μL capacity were punched on each plate. Samples 5–18 (10 μL of 10 mg/mL standard prepared in 50% DMSO) were placed in each plate’s well in different plate sets. All the plates were incubated for overnight at 37 °C in an incubator shaker. The inhibition zone was calculated in triplicate.

In a further data set the test system is S. aureus (ATCC 29213). As to the kind of experiment: Antimicrobial activity, agar well zone of inhibition, S. aureus. The format is cell-based, Staphylococcus aureus. Conditions: 10 μL of 10 mg/mL in 50% DMSO per well, overnight 37 °C, --- = no zone of inhibition; for zone of inhibition at 10000 µg/mL: Staphylococcus aureus, ATCC29213. The method, then:
as §1

The test system of a further data set is C. albicans (ATCC 10231). As to the kind of experiment: Antifungal activity, agar well zone of inhibition, C. albicans. The data set is classed as cell-based, Candida albicans. Conditions: 10 μL of 10 mg/mL in 50% DMSO per well, overnight 37 °C, --- = no zone of inhibition; for zone of inhibition at 10000 µg/mL: Candida albicans, ATCC10231. As to the method:
as §1

Another data set deals with MCF-7. As to the kind of experiment: Antiproliferative activity, MTT assay, MCF-7. The following applies: for IC50: Homo sapiens, MCF7, read-out: Cytotoxicity IC50 MCF-7. The source says:
(§2) The compounds were screened on breast (MCF-7), liver (HepG2), and colorectal (HCT-116) cancer cells, obtained from American Type culture Collection (ATCC); 0.1% of DMSO was used as a vehicle control.
Background: Tetrazolium dyes change colour on reduction, which living cells bring about.

The next data set deals with HepG2. As to the kind of experiment: Antiproliferative activity, MTT assay, HepG2. The following applies: Homo sapiens, HepG2, read-out: Cytotoxicity IC50 HepG2.
From the text: as §2

Another data set relates to HCT-116. As to the kind of experiment: Antiproliferative activity, MTT assay, HCT-116. The following applies: Homo sapiens, HCT-116, read-out: Cytotoxicity IC50 HCT-116.
From the text: as §2

For data set [1], the target named is Thymidylate synthase (TS) (Homo sapiens, UniProt P04818). Kind of data set: Thymidylate synthase (TS) enzymatic assay.
Chain of Thymidylate synthase (TS) (P04818 whole entry): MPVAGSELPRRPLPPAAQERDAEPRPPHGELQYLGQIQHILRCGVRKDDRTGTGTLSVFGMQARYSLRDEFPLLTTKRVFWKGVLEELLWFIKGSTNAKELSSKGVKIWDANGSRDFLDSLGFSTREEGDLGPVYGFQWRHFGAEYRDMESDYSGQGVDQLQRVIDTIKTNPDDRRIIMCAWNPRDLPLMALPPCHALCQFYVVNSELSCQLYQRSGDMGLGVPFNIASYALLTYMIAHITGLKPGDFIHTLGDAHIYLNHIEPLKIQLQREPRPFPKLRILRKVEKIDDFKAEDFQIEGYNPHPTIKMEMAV

Usually zone of inhibition stands for the size of the clear area around the sample on an inoculated plate. A high value points to a stronger effect on the plate. A word on the melting point: it is the temperature of the solid-liquid transition. `C#CCSc1nnc(COc2cc(C)ccc2C(C)C)o1` [Compound 5, 2-((2-isopropyl-5-methylphenoxy)methyl)-5-(prop-2-ynylthio)-1,3,4-oxadiazole] displayed a melting point of 58 to 60 °C. Moreover, in the data set with E. coli (ATCC 31218), the “zone of inhibition E. coli” value was 12 ± 0.32 mm and the zone of inhibition at 10000 µg/mL came to 12 mm. In the data set on S. aureus (ATCC 29213), the “zone of inhibition S. aureus” value is reported as 9 ± 0.30 mm and the zone of inhibition at 10000 µg/mL is 9 mm. For the same molecule, in the data set with C. albicans (ATCC 10231), the “zone of inhibition C. albicans” value was 10 ± 0.32 mm and the zone of inhibition at 10000 µg/mL came to 10 mm.

For orientation: IC50 means the midpoint of a concentration-inhibition curve. Regarding `O=c1[nH]cc(F)c(=O)[nH]1` [Compound 5-FU, 5-fluorouracil, reference compound], the IC50 in the data set with MCF-7 amounted to 18.7 µM; in the data set with HepG2 it was 28.7 µM; in the data set with HCT-116 it was 30.7 µM.

In turn, `Cc1ccc(C(C)C)c(OCc2nnc(SCc3cn(-c4ccccc4)nn3)o2)c1` [Compound 6, 4-((5-((2-isopropyl-5-methylphenoxy)methyl)-1,3,4-oxadiazol-2-ylthio)methyl)-1-phenyl-1H-1,2,3-triazole] returned a melting point of 88 to 90 °C. The concentration for half-maximal inhibition (IC50) with MCF-7 is 22.5 µM. In the data set on E. coli (ATCC 31218), the “zone of inhibition E. coli” value turned out to be 14 ± 0.38 mm and the zone of inhibition at 10000 µg/mL worked out at 14 mm. Also, in the data set on HepG2, the IC50 came out at 41.6 µM. Moreover, the half-maximal inhibitory concentration (IC50) with HCT-116 turned out to be 36.5 µM. Further, in the data set with S. aureus (ATCC 29213), the “zone of inhibition S. aureus” value worked out at 10 ± 0.40 mm and the zone of inhibition at 10000 µg/mL was determined as 10 mm.

`Cc1ccc(C(C)C)c(OCc2nnc(SCc3cn(-c4cccc(C(=O)O)c4)nn3)o2)c1` [Compound 8, 3-(4-((5-((2-isopropyl-5-methylphenoxy)methyl)-1,3,4-oxadiazol-2-ylthio)methyl)-1H-1,2,3-triazol-1-yl)benzoic acid] came in with a melting point of 166 to 168 °C. Also, in the data set on MCF-7, the IC50 turned out to be 3.9 µM. The molecule also returned an IC50 in data set [1] of 3.98 ± 1.1 µM. The IC50 in the data set on HepG2 was 5.3 µM. The half-inhibitory concentration (IC50) in the data set with HCT-116 is 5.8 µM. Also, in the data set on S. aureus (ATCC 29213), the “zone of inhibition S. aureus” value is recorded as 10 ± 0.40 mm and the zone of inhibition at 10000 µg/mL is 10 mm.

On to `Cc1ccc(C(C)C)c(OCc2nnc(SCc3cn(-c4ccccc4Cl)nn3)o2)c1` [Compound 10, 4-((5-((2-isopropyl-5-methylphenoxy)methyl)-1,3,4-oxadiazol-2-ylthio)methyl)-1-(2-chlorophenyl)-1H-1,2,3-triazole], for which the melting point lay within 90 to 92 °C. The “times active relative to 5-florouracil, MCF-7” value in the data set with MCF-7 ((IC50 18.74 μM)) is given as 15 times. The IC50 in the data set on MCF-7 was determined as 1.3 µM. Further, the 50% inhibitory concentration (IC50) in data set [1] was found to be 2.18 ± 1.7 µM. Also, the IC50 in the data set with HepG2 turned out to be 2.5 µM. Moreover, the half-maximal inhibitory concentration (IC50) with HCT-116 came out at 3.8 µM.

Take `Cc1ccc(C(C)C)c(OCc2nnc(SCc3cn(-c4cccc(Cl)c4)nn3)o2)c1` [Compound 11, 4-((5-((2-isopropyl-5-methylphenoxy)methyl)-1,3,4-oxadiazol-2-ylthio)methyl)-1-(3-chlorophenyl)-1H-1,2,3-triazole]: the melting point lay within 92 to 94 °C. For the same molecule, the IC50 in the data set with MCF-7 is 4.9 µM. Also, in data set [1], 4.24 ± 0.8 µM corresponded to half-maximal inhibition (IC50). Further, the IC50 in the data set with HepG2 came out at 18.6 µM. Further, in the data set with HCT-116, the IC50 was 16.3 µM.

The molecule `Cc1ccc(C(C)C)c(OCc2nnc(SCc3cn(-c4ccc(Cl)cc4Cl)nn3)o2)c1` [Compound 12, 4-((5-((2-isopropyl-5-methylphenoxy)methyl)-1,3,4-oxadiazol-2-ylthio)methyl)-1-(2,4-dichlorophenyl)-1H-1,2,3-triazole] yielded a melting point of 84 to 86 °C. Moreover, in the data set on MCF-7, the IC50 was 59.4 µM. For the same molecule, in the data set with E. coli (ATCC 31218), the “zone of inhibition E. coli” value worked out at 10 ± 0.38 mm and the zone of inhibition at 10000 µg/mL worked out at 10 mm. Further, the IC50 in the data set on HepG2 turned out to be 40.6 µM. Besides, the IC50 in the data set on HCT-116 turned out to be 47.3 µM. For the same molecule, in the data set with C. albicans (ATCC 10231), the “zone of inhibition C. albicans” value was found to be 12 ± 0.036 mm and the zone of inhibition at 10000 µg/mL was determined as 12 mm.

In the case of `Cc1ccc(C(C)C)c(OCc2nnc(SCc3cn(-c4ccc(Br)cc4)nn3)o2)c1` [Compound 13, 4-((5-((2-isopropyl-5-methylphenoxy)methyl)-1,3,4-oxadiazol-2-ylthio)methyl)-1-(4-bromophenyl)-1H-1,2,3-triazole], the melting point lay within 114 to 116 °C. Further, in the data set on MCF-7, the IC50 stood at 65.3 µM. In addition, in the data set with E. coli (ATCC 31218), the “zone of inhibition E. coli” value turned out to be 11 ± 0.34 mm and the zone of inhibition at 10000 µg/mL came to 11 mm. Also, in the data set with HepG2, the IC50 was 69.4 µM. In addition, the IC50 in the data set with HCT-116 is 78.7 µM.

Molecule `Cc1ccc(C(C)C)c(OCc2nnc(SCc3cn(-c4cccc(Br)c4)nn3)o2)c1` [Compound 14, 4-((5-((2-isopropyl-5-methylphenoxy)methyl)-1,3,4-oxadiazol-2-ylthio)methyl)-1-(3-bromophenyl)-1H-1,2,3-triazole] registered a melting point of 72 to 74 °C. Further, in the data set with MCF-7, the IC50 stood at 41.8 µM. Besides, in the data set on E. coli (ATCC 31218), the “zone of inhibition E. coli” value came out at 9 ± 0.32 mm and the zone of inhibition at 10000 µg/mL is 9 mm. The IC50 in the data set with HepG2 was 23.7 µM. Moreover, the IC50 with HCT-116 was determined as 32.8 µM.

The molecule `Cc1ccc(C(C)C)c(OCc2nnc(SCc3cn(-c4ccc(F)cc4)nn3)o2)c1` [Compound 15, 4-((5-((2-isopropyl-5-methylphenoxy)methyl)-1,3,4-oxadiazol-2-ylthio)methyl)-1-(4-florophenyl)-1H-1,2,3-triazole] yielded a melting point of 118 to 120 °C. The half-maximal inhibitory concentration (IC50) with MCF-7 worked out at 23.2 µM. Further, the IC50 in the data set with HepG2 worked out at 49.2 µM. In the data set on HCT-116, the IC50 amounted to 31.4 µM.

The molecule `Cc1ccc(C(C)C)c(OCc2nnc(SCc3cn(-c4ccc(F)cc4F)nn3)o2)c1` [Compound 16, 4-((5-((2-isopropyl-5-methylphenoxy)methyl)-1,3,4-oxadiazol-2-ylthio)methyl)-1-(2,4-diflorophenyl)-1H-1,2,3-triazole] yielded a melting point of 130 to 132 °C. Further, the half-maximal inhibitory concentration (IC50) with MCF-7 is 34.5 µM. Besides, in the data set on E. coli (ATCC 31218), the “zone of inhibition E. coli” value was 14 ± 0.34 mm and the zone of inhibition at 10000 µg/mL amounted to 14 mm. Further, in the data set with HepG2, the IC50 turned out to be 58.3 µM. Besides, the IC50 in the data set with HCT-116 is 56.2 µM. Further, in the data set with S. aureus (ATCC 29213), the “zone of inhibition S. aureus” value is 15±0.38 mm and the zone of inhibition at 10000 µg/mL was found to be 15 mm.

On to `Cc1ccc(C(C)C)c(OCc2nnc(SCc3cn(C(=O)Nc4ccccc4C)nn3)o2)c1` [Compound 17, 4-((5-((2-isopropyl-5-methylphenoxy)methyl)-1,3,4-oxadiazol-2-ylthio)methyl)-N-o-tolyl-1H-1,2,3-triazole-1-carboxamide], for which the melting point fell in the range of 124 to 126 °C. Moreover, the IC50 in the data set with MCF-7 was found to be 9.39 µM. In the data set with E. coli (ATCC 31218), the “zone of inhibition E. coli” value turned out to be 12 ± 0.32 mm and the zone of inhibition at 10000 µg/mL is 12 mm. In addition, the IC50 in the data set on HepG2 came to 39.1 µM. Also, in the data set with HCT-116, the IC50 is 17.3 µM. In addition, in the data set on S. aureus (ATCC 29213), the “zone of inhibition S. aureus” value was found to be 12 ± 0.34 mm and the zone of inhibition at 10000 µg/mL was determined as 12 mm.

Molecule `Cc1ccc(C(C)C)c(OCc2nnc(S(=O)(=O)Cc3cn(-c4cccc(Br)c4)nn3)o2)c1` [Compound 18, 4-((5-((2-isopropyl-5-methylphenoxy)methyl)-1,3,4-oxadiazol-2-ylsulfonyl)methyl)-1-(3-bromophenyl)-1H-1,2,3-triazole] yielded a melting point of 98 to 100 °C. Besides, the IC50 in the data set with MCF-7 worked out at 98.2 µM. Besides, the half-inhibitory concentration (IC50) in the data set with HepG2 turned out to be 95.7 µM. Moreover, the IC50 in the data set on HCT-116 came out at 118 µM.

For `COc1cccc2c1C(=O)c1c(O)c3c(c(O)c1C2=O)C[C@@](O)(C(=O)CO)C[C@@H]3O[C@H]1C[C@H](N)[C@H](O)[C@H](C)O1` [Dox, doxorubicin, reference compound], the IC50 was found to be 1.2 µM in the data set with MCF-7, 1.8 µM in the data set on HepG2 and 2.5 µM with HCT-116.

The molecule `OC(Cn1cncn1)(Cn1cncn1)c1ccc(F)cc1F` [Fluconazole, reference compound] showed a zone of inhibition at 10000 µg/mL in the data set on C. albicans (ATCC 10231) of 16 ± 0.6 mm.

`CO[C@@H]1[C@@H](OC(N)=O)[C@@H](O)[C@H](Oc2ccc3c(O)c(NC(=O)c4ccc(O)c(CC=C(C)C)c4)c(=O)oc3c2C)OC1(C)C` [Novobiocin, reference compound] returned a zone of inhibition at 10000 µg/mL with S. aureus (ATCC 29213) of 10 ± 0.24 mm.

`Nc1nc2[nH]cc(CCc3ccc(C(=O)N[C@@H](CCC(=O)O)C(=O)O)cc3)c2c(=O)[nH]1` [Pemetrexed, reference compound] registered a half-inhibitory concentration (IC50) in data set [1] of 7.26 ± 1.1 µM.
